Data on three compounds can be found in ChEMBL document CHEMBL4265942, “Four new antitumor metabolites isolated from a mutant 3-f-31 strain derived from Penicillium purpurogenum G59” (Eur J Med Chem, 2018).

Experiment [1] deals with HCT-116. Kind of experiment: Down regulation of survivin expression in human HCT116 cells at 12.5 ug/ml after 48 hrs by Western blot analysis. Type of experiment: functional, cell-based.
Experiment [2] relates to HCT-116. Kind of experiment: Upregulation of p53 expression in human HCT116 cells at 12.5 ug/ml after 48 hrs by Western blot analysis. Type of experiment: functional, cell-based. (A western blot detects proteins with antibodies after separation by electrophoresis.)
In experiment [3] the test system is L929. Kind of experiment: Cytotoxicity against mouse L929 cells assessed as inhibition of cell growth after 72 hrs by MTT assay. Type of experiment: cell-based. Particulars: L929, 72 h.
Experiment [4] deals with HL-60. In words: Antiproliferative activity against human HL60 cells assessed as inhibition of cell growth after 72 hrs by MTT assay. Type of experiment: functional, cell-based. The note with it: HL-60, 72 h.
Experiment [5] concerns LS180. In words: Antiproliferative activity against human LS180 cells assessed as inhibition of cell growth after 72 hrs by sulforhodamine B assay. Particulars: LS180, 72 h. Type of experiment: functional, cell-based.
For experiment [6], the system named is BXPC-3. In words: Antiproliferative activity against human BxPC3 cells assessed as inhibition of cell growth after 72 hrs by sulforhodamine B assay. Type of experiment: functional, cell-based. The note with it: BXPC-3, 72 h.
In experiment [7] the test system is HT-29. In words: Antiproliferative activity against human HT-29 cells assessed as inhibition of cell growth after 72 hrs by sulforhodamine B assay. Type of experiment: functional, cell-based. The note with it: HT-29, 72 h. On the technique in general: In SRB staining, fixed cells bind dye roughly in proportion to their protein.
For experiment [8], the system named is MCF7. In words: Antiproliferative activity against human MCF7 cells assessed as inhibition of cell growth after 72 hrs by sulforhodamine B assay. Type of experiment: functional, cell-based. The note with it: MCF7, 72 h.
The subject of experiment [9] is PANC-1. Kind of experiment: Antiproliferative activity against human PANC1 cells assessed as inhibition of cell growth after 72 hrs by sulforhodamine B assay. Particulars: PANC-1, 72 h. Type of experiment: functional, cell-based.
Experiment [10] concerns HepG2. Kind of experiment: Antiproliferative activity against human HepG2 cells assessed as inhibition of cell growth after 72 hrs by sulforhodamine B assay. Particulars: HepG2, 72 h. Type of experiment: functional, cell-based.
Experiment [11] relates to PC-3. Kind of experiment: Antiproliferative activity against human PC3 cells assessed as inhibition of cell growth after 72 hrs by sulforhodamine B assay. Type of experiment: functional, cell-based. Particulars: PC-3, 72 h.
In experiment [12] the test system is HeLa. Kind of experiment: Antiproliferative activity against human HeLa cells assessed as inhibition of cell growth after 72 hrs by sulforhodamine B assay. Type of experiment: functional, cell-based.
The subject of experiment [13] is NCI-H1975. Kind of experiment: Antiproliferative activity against human NCI-H1975 cells assessed as inhibition of cell growth after 72 hrs by sulforhodamine B assay. Particulars: NCI-H1975, 72 h. Type of experiment: functional, cell-based.
Experiment [14] has as its system SW480. In words: Antiproliferative activity against human SW480 cells assessed as inhibition of cell growth after 72 hrs by sulforhodamine B assay. The note with it: SW480, 72 h. Type of experiment: functional, cell-based.
In experiment [15] the test system is A549. Kind of experiment: Antiproliferative activity against human A549 cells assessed as inhibition of cell growth after 72 hrs by sulforhodamine B assay. Type of experiment: functional, cell-based. The note with it: A549, 72 h.
Experiment [16] concerns HCT-116. In words: Antiproliferative activity against human HCT116 cells assessed as inhibition of cell growth after 72 hrs by sulforhodamine B assay. Type of experiment: functional, cell-based. Particulars: HCT-116, 72 h.
The subject of experiment [17] is K562. In words: Antiproliferative activity against human K562 cells assessed as inhibition of cell growth after 72 hrs by MTT assay. The note with it: K562, 72 h. Type of experiment: functional, cell-based. In general terms: Tetrazolium dyes change colour on reduction, which living cells bring about.
Experiment [18] relates to HepG2. Kind of experiment: Antiproliferative activity against human HepG2 cells assessed as inhibition of cell growth at 100 uM after 72 hrs by sulforhodamine B assay relative to control. Type of experiment: functional. The note with it: HepG2, 72 h.
For experiment [19], the system named is K562. In words: Antiproliferative activity against human K562 cells assessed as inhibition of cell growth at 100 uM after 72 hrs by MTT assay relative to control. Type of experiment: functional. Particulars: K562, 72 h.
For experiment [20], the system named is NCI-H1975. Kind of experiment: Antiproliferative activity against human NCI-H1975 cells assessed as inhibition of cell growth at 100 uM after 72 hrs by sulforhodamine B assay relative to control. Type of experiment: functional. Particulars: NCI-H1975, 72 h.
Experiment [21] has as its system A549. Kind of experiment: Antiproliferative activity against human A549 cells assessed as inhibition of cell growth at 100 uM after 72 hrs by sulforhodamine B assay relative to control. Type of experiment: functional. Particulars: A549, 72 h.
Experiment [22] relates to HL-60. In words: Antiproliferative activity against human HL60 cells assessed as inhibition of cell growth at 100 uM after 72 hrs by MTT assay relative to control. Type of experiment: functional. The note with it: HL-60, 72 h.
The subject of experiment [23] is SW480. In words: Antiproliferative activity against human SW480 cells assessed as inhibition of cell growth at 100 uM after 72 hrs by sulforhodamine B assay relative to control. Type of experiment: functional. The note with it: SW480, 72 h.
In experiment [24] the test system is BXPC-3. Kind of experiment: Antiproliferative activity against human BxPC3 cells assessed as inhibition of cell growth at 100 uM after 72 hrs by sulforhodamine B assay relative to control. The note with it: BXPC-3, 72 h. Type of experiment: functional.
Experiment [25] deals with PANC-1. Kind of experiment: Antiproliferative activity against human PANC1 cells assessed as inhibition of cell growth at 100 uM after 72 hrs by sulforhodamine B assay relative to control. Type of experiment: functional. The note with it: PANC-1, 72 h.
Experiment [26] deals with HCT-116. Kind of experiment: Antiproliferative activity against human HCT116 cells assessed as inhibition of cell growth at 100 uM after 72 hrs by sulforhodamine B assay relative to control. Particulars: HCT-116, 72 h. Type of experiment: functional.
For experiment [27], the system named is HeLa. Kind of experiment: Antiproliferative activity against human HeLa cells assessed as inhibition of cell growth at 100 uM after 72 hrs by sulforhodamine B assay relative to control. Type of experiment: functional.
Experiment [28] concerns HT-29. Kind of experiment: Antiproliferative activity against human HT-29 cells assessed as inhibition of cell growth at 100 uM after 72 hrs by sulforhodamine B assay relative to control. Type of experiment: functional. Particulars: HT-29, 72 h.
The subject of experiment [29] is LS180. In words: Antiproliferative activity against human LS180 cells assessed as inhibition of cell growth at 100 uM after 72 hrs by sulforhodamine B assay relative to control. The note with it: LS180, 72 h. Type of experiment: functional.
Experiment [30] has as its system MCF7. In words: Antiproliferative activity against human MCF7 cells assessed as inhibition of cell growth at 100 uM after 72 hrs by sulforhodamine B assay relative to control. Type of experiment: functional. The note with it: MCF7, 72 h.
For experiment [31], the system named is PC-3. In words: Antiproliferative activity against human PC3 cells assessed as inhibition of cell growth at 100 uM after 72 hrs by sulforhodamine B assay relative to control. Type of experiment: functional. The note with it: PC-3, 72 h.

For orientation: IC50 means the point on the concentration scale where inhibition reaches its midpoint. Broadly, the inhibition is how much of the control response was suppressed.

The source made the active and inactive calls. The rule behind the calls is not given here.

Regarding `COc1cc([C@@H]2c3cc4c(cc3[C@@H](O[C@@H]3O[C@@H]5CO[C@@H](C)O[C@H]5[C@H](O)[C@H]3O)[C@H]3COC(=O)[C@H]23)OCO4)cc(OC)c1O`, the outcome in experiment [1] and in experiment [2] was Active.

In the case of `CCCCCC[C@@H](C)C[C@@H](C)/C=C/C(N)=O`, the IC50 turned out to be 13.5 µM in experiment [3]; 51.5 µM in [4]; 64.5 µM in [5]; 67.7 µM in [6]; 85.4 µM in experiment [7]; 60.6 µM in experiment [8]. The IC50 in [9] is 82.6 µM; in experiment [10], 78.3 µM; in experiment [11], above 100 µM; in experiment [12], 78.3 µM; in experiment [13], 53.9 µM; in experiment [14], 55 µM. Moreover, the results for the IC50 in [15], in experiment [16] and in experiment [17] were 59.4 µM, above 100 µM and 62.5 µM, respectively.

Consider `O=c1[nH]cc(F)c(=O)[nH]1` [FLUOROURACIL], for which the inhibition at 100 µM in experiment [18], in [19], in experiment [20], in experiment [21], in [22] and in experiment [23] was 41 to 95% in each case. Also, the inhibition at 100 µM in [24], in [25], in experiment [26], in experiment [27], in experiment [28] and in experiment [29] was 41 to 95% throughout. Further, the inhibition at 100 µM in experiment [30] and in experiment [31] was 41 to 95% each time.
